Laboratory results reported in patent US10519118B2, “KDM1A inhibitors for the treatment of disease” (Imago Biosciences, Inc., priority 2015, dated 2019).
Several values for one entry are separate records, joined by “and”; a condition that tells them apart may be missing. Identical values can stand only once.

Legend:
Assay type in all cases: physicochemical
[1] = Solvent solubility assessment with increasing volumes of solvent; design: key to Solubility observation: # = clear solution; x = suspension
Method: Example 1 was treated with increasing volumes of solvent (2-propanol (IPA), acetone, methylethyl ketone, ethyl acetate, tetrahydrofuran, acetonitrile, 1,4-dioxane, 90:10 IPA:water, 90:10 THF:water, tert-butylmethyl ether (MTBE), and n-heptane) until the material fully dissolved or until a maximum of 100 vol. had been used. After each addition of solvent, the system was stirred at 25° C. for 10 min before the addition of a new aliquot of solvent. Example 1 was readily soluble in 2-propanol (IPA), acetone, methylethyl ketone, ethyl acetate, tetrahydrofuran, acetonitrile, 1,4-dioxane, 90:10 IPA:water, and 90:10 THF:water, dissolving readily in 10 vol. solvent. MTBE and n-heptane were identified as anti-solvents when Example 1 was not soluble in 100 vol. solvent.
Amorphous Example 1 (10 mg) was treated with increasing volumes of solvent at 25° C. with stirring (Table #). […] For those instances where dissolution was not observed, the samples were placed at 50° C. for 10 minutes. To all samples still in suspension, a further 10 volumes of solvents were added and the sample placed at 25° C. The temperature was then once again increased to 50° C. and maintained until the end of the experiment. Further solvent was added until the material fully dissolved or until a maximum of 70 volumes had been used. Hydrochloric acid was then added (1.1 equivalents) to all samples. A cooling ramp was set to 5° C. at 0.1° C./min and the solutions or oils were stirred at this temperature overnight, yielding oils or solutions.
Crystalline bis tosylate Form 2 (30 mg) was treated with increasing volumes of solvent (n-Heptane, diethyl ether, ethyl acetate, isopropyl acetate, methylisobutyl ketone, 2-propanol, methylethyl ketone, acetone, dimethyl sulfoxide, water, tert-butylmethyl ether, cyclohexane, 1,4-dioxane, toluene, chloroform, 1,2-dimethoxyethane, tetrahydrofuran, N,N-dimethylformamide, acetonitrile, nitromethane, N-methylpyrrolidone, tetrahydrofuran:water 95:5, 2-propanol:water 95:5, or acetone:water 95:5 at 5, 10, 20, 30, 50, 70, or 100 vol total) until the material fully dissolved or until a maximum of 100 vol had been added. After each addition of solvent, the system was shaken gently for 10 minutes at 50° C. and then allowed to stand at ambient conditions for 5 minutes before the addition of a new aliquot of solvent. After the assessment was completed, any suspensions obtained were matured and clear solutions were cooled to 4° C. and held isothermally.

[2] = Solid-state storage stability at elevated temperature and humidity (40° C./75% RH, 25° C./95-97% RH)
[3] = Chemical stability of Example 1 free base lots, HPLC purity re-test
Method: Various lots of Example 1 were analyzed by HPLC shortly after synthesis (analysis from 1-24 hours post-synthesis) and re-tested for purity a unit of time later.
Purity analysis was performed on an Agilent HP1100 series system equipped with a diode array detector and using ChemStation software vB.04.03 using one of the methods detailed below: […]

[4] = Gravimetric vapour sorption (GVS), hygroscopicity; details: for hygroscopicity: in words
Method: Typically 5-20 mg of sample was placed in a tared mesh stainless steel basket under ambient conditions. The sample was loaded and unloaded at 40% RH and 25° C. (typical room conditions). A moisture sorption isotherm was performed as outlined below (2 scans giving 1 complete cycle). The standard isotherm was performed at 25° C. at 10% RH intervals over a 0-90% RH range. Data analysis was carried out using Microsoft Excel using DVS Analysis Suite v6.2 (or 6.1 or 6.0).
Sorption isotherms were obtained using a SMS DVS Intrinsic moisture sorption analyzer, controlled by DVS Intrinsic Control software v1.0.1.2 (or v 1.0.1.3). The sample temperature was maintained at 25° C. by the instrument controls. The humidity was controlled by mixing streams of dry and wet nitrogen, with a total flow rate of 200 mL/min The relative humidity was measured by a calibrated Rotronic probe (dynamic range of 1.0-100% RH), located near the sample. The weight change, (mass relaxation) of the sample as a function of % RH was constantly monitored by the microbalance (accuracy±0.005 mg).

With `CN1CCN(C(=O)[C@H](CCCN[C@@H]2C[C@H]2c2ccc(F)cc2)NC(=O)c2ccc(-n3ccnn3)cc2)CC1.Cc1ccc(S(=O)(=O)O)cc1.Cc1ccc(S(=O)(=O)O)cc1` [Example 1 bis tosylate Form 2, N—((S)-5-((1R,2S)-2-(4-fluorophenyl)cyclopropylamino)-1-(4-methylpiperazin-1-yl)-1-oxopentan-2-yl)-4-(1H-1,2,3-triazol-1-yl)benzamide bis-tosylate Form 2] the “solvent volume needed to dissolve” value ([1]; crystalline bis tosylate Form 2, all other solvents tested incl. water, remained a suspension) was over 100 vol, the “solvent volume needed to dissolve” value ([1]; crystalline bis tosylate Form 2, dimethylsulfoxide and N,N-dimethylformamide, 50° C. shaking) was 5 vol and the “solvent volume needed to dissolve” value ([1]; crystalline bis tosylate Form 2, tetrahydrofuran:water 95:5) was 10 vol.
In the case of `CN1CCN(C(=O)C(CN[C@@H]2C[C@H]2c2ccc(F)cc2)NC(=O)c2ccc(-n3ccnn3)cc2)CC1` (stereo partly drawn) [Example 1, N-[3-[[(1R,2S)-2-(4-Fluorophenyl)cyclopropyl]amino]-1-(4-methylpiperazin-1-yl)-1-oxopropan-2-yl]-4-(1H-1,2,3-triazol-1-yl)benzamide], the “behaviour at high humidity” value ([2]; free base form) is reported as “deliquesces”, the “stability at elevated storage conditions” value ([2]; free base, 25° C./97% RH and 40° C./75% RH) is reported as “deliquesced” and the “Re-Test Purity” value ([3]; free base Lot 1, 49 days between tests) is reported as 82%. The “Re-Test Purity” value ([3]; free base Lot 2, 16 days between tests) was 72%, the “stability at ambient conditions” value ([3]; free base form) was “degrades at ambient conditions over time” and the “Initial Purity” value ([3]; free base lots, HPLC 1-24 hours post-synthesis) was 93% and 81%. The hygroscopicity [4] was “hygroscopic”, the Solubility observation ([1]; 1-Butanol, 10 vol 25° C.) was “#” and the Solubility observation ([1]; 1-Propanol, 10 vol 25° C.) was “#”. For the same molecule, the Solubility observation ([1]; 2-Propanol, 10 vol 25° C.) was “#”, the “solvent volume needed to dissolve” value ([1]; 25° C., IPA, acetone, methylethyl ketone, ethyl acetate, THF, acetonitrile, 1,4-dioxane, 90:10 IPA:water, 90:10 THF:water) was 10 vol and the “solvent volume needed to dissolve” value ([1]; 25° C., MTBE and n-heptane (anti-solvents)) was over 100 vol. The Solubility observation ([1]; Acetone, 10 vol 25° C.) was “#”, the Solubility observation ([1]; Acetone:Water (90:10), 10 vol 25° C.) was “#” and the Solubility observation ([1]; Acetone:Water (95:5), 10 vol 25° C.) was “#”. For the same molecule, the Solubility observation ([1]; Acetonitrile, 10 vol 25° C.) was “#”, the Solubility observation ([1]; Anisole, 10 vol 25° C.) was “#” and the Solubility observation ([1]; Cyclohexane, 10 vol 25° C.) was “oil”. The Solubility observation ([1]; Cyclohexane, 10 vol 50° C.) was “oil”, the Solubility observation ([1]; Cyclohexane, 20 vol 25° C.) was “oil” and the Solubility observation ([1]; Cyclohexane, 20 vol 50° C.) was “oil”. For the same molecule, the Solubility observation ([1]; Cyclohexane, 40 vol 50° C.) was “oil”, the Solubility observation ([1]; Cyclohexane, 70 vol 50° C.) was “oil” and the Solubility observation ([1]; Dichloromethane, 10 vol 25° C.) was “#”. The Solubility observation ([1]; Diethyl ether, 10 vol 25° C.) was “oil”, the Solubility observation ([1]; Diethyl ether, 10 vol 50° C.) was “oil” and the Solubility observation ([1]; Diethyl ether, 20 vol 25° C.) was “oil”. The Solubility observation ([1]; Diethyl ether, 20 vol 50° C.) was “oil”, the Solubility observation ([1]; Diethyl ether, 40 vol 50° C.) was “oil” and the Solubility observation ([1]; Diethyl ether, 70 vol 50° C.) was “oil”. For the same molecule, the Solubility observation ([1]; Dimethyl sulfoxide, 10 vol 25° C.) was “#”, the Solubility observation ([1]; EtOH:Water (85:15), 10 vol 25° C.) was “#” and the Solubility observation ([1]; Ethanol, 10 vol 25° C.) was “#”. For the same molecule, the Solubility observation ([1]; IPA:Water (85:15), 10 vol 25° C.) was “#”, the Solubility observation ([1]; Isopropyl acetate, 10 vol 25° C.) was “#” and the Solubility observation ([1]; MEK, 10 vol 25° C.) was “#”. The Solubility observation ([1]; MIBK, 10 vol 25° C.) was “#”, the Solubility observation ([1]; MeOH:Water (85:15), 10 vol 25° C.) was “#” and the Solubility observation ([1]; Methanol, 10 vol 25° C.) was “#”. For the same molecule, the Solubility observation ([1]; Methyl acetate, 10 vol 25° C.) was “#”, the Solubility observation ([1]; Propyl acetate, 10 vol 25° C.) was “#” and the Solubility observation ([1]; Toluene, 10 vol 25° C.) was “#”. For the same molecule, the Solubility observation ([1]; Water, 10 vol 25° C.) was “x”, the Solubility observation ([1]; Water, 10 vol 50° C.) was “x” and the Solubility observation ([1]; Water, 20 vol 25° C.) was “x”. For the same molecule, the Solubility observation ([1]; Water, 20 vol 50° C.) was “oil”, the Solubility observation ([1]; Water, 40 vol 50° C.) was “oil” and the Solubility observation ([1]; Water, 70 vol 50° C.) was “oil”. The “solvent volume needed to dissolve” value ([1]; amorphous free base, most solvents at 25° C.) was 10 volumes and the observation in solvent ([1]; amorphous free base, water, diethyl ether, cyclohexane, up to 70 volumes, 25-50° C.) was “oils eventually formed”.
With `O=C(O)C(O)C(O)C(=O)O` (stereo not drawn) [tartrate] the “Storage at 40° C. and 75% RH (form by XRPD)” value ([2]; one week / 7 days) was “no change in form was observed”, the “Storage at both 40° C. and 75% RH and 25° C. and 95% RH (form, purity)” value ([2]; scaled-up salts) was “changes in crystallinity and form” and the GVS water uptake ([4]; 25° C., full cycle 0-90% RH) was about 30 % w/w. For the same molecule, the hygroscopicity [4] was “highly hygroscopic”.
